Read-outs that look alike come from different tables or passages of the source.
Experiments:
human V1a receptor [1] = target: T1, human V1a receptor (Homo sapiens, UniProt P37288); test: Inhibition of phosphatidylinositol turnover (V1a); type: cell-based; settings: inhibition of vasopressin-mediated phosphatidylinositol turnover
T1 construct: host or cells: CHO cells (hV1a cell line)
Text: The physiological effects of vasopressin are mediated through specific G-protein coupled receptors. The vasopressin V1a receptor is coupled to the Gq/G11 family of G proteins and mediates phosphatidylinositol turnover. The agonist or antagonist character of the compounds of the invention may be determined by their ability to inhibit vasopressin-mediated turnover of phosphatidylinositol by the procedure described in the following paragraphs.
Cell culture and labeling of cells.
All assays were in triplicate except for basal and 10 nM AVP (both n=6). AVP ((arginine vasopressin), Peninsula Labs, Belmont, Calif., USA (#8103)) was dissolved in 0.1N acetic acid. Test agents were dissolved in DMSO and diluted in DMSO to 200 times the final test concentration. […] The order of incubations was randomized. Incubations were initiated by removing the prelabeling medium, washing the monolayer once with 1 mL of 0.9% NaCl, and transferring the contents of the assay tubes to corresponding wells. The plates were incubated for 1 hour at 37° C. Incubations were terminated by removing the incubation medium and adding 500 μL of ice cold 5% (w/v) trichloroacetic acid and allowing the wells to stand for 15 min.
BioRad Poly-Prep Econo-Columns were packed with 0.3 mL of AG 1 X-8 100-200 formate form resin. Resin was mixed 1:1 with water and 0.6 mL added to each column. Columns were then washed with 10 mL water. Scintillation vials (20 mL) were placed under each column. For each well, the contents were transferred to a minicolumn, after which the well was washed with 0.5 mL distilled water, which was also added to the minicolumn. The columns were then washed twice with 5 mL of 5 mM myo-inositol to elute free inositol. Aliquots (1 mL) were transferred to 20 mL scintillation vials and 10 mL of Beckman Ready Protein Plus added. After the myo-inositol wash was complete, empty scintillation vials were placed under the columns, and [^3H]inositol phosphates were eluted with three additions of 1 mL 0.5 M ammonium formate containing 0.1 N formic acid. Elution conditions were optimized to recover inositol mono-, bis-, and trisphosphates, without eluting the more metabolically inert tetrakis-, pentakis-, and hexakis-phosphates. To each sample was added 10 mL of a high salt capacity scintillation fluid such as Tru-Count High Salt Capacity or Packard Hionic-Fluor. Inositol lipids were measured by adding 1 mL of 2% sodium dodecyl sulfate (SDS) to each well, allowing the wells to stand for at least 30 min., and transferring the solution to 20 mL scintillation vials, to which 10 mL Beckman Ready Protein Plus scintillation fluid was then added. Samples were counted in a Beckman LS 3801 liquid scintillation counter for 10 min. Total inositol incorporation for each well was calculated as the sum of free inositol, inositol phosphates, and inositol lipids.
Concentration-response curves for AVP and concentration-inhibition curves for test agents versus 10 nM AVP were analyzed by nonlinear least-squares curve-fitting to a 4-parameter logistic function. Parameters for basal and maximal inositol phosphates, EC50 or IC50, and Hill coefficient were varied to achieve the best fit. The curve-fitting was weighted under the assumption that the standard deviation was proportional to dpm of radioactivity.

human V1a receptor [2] = target: T1, human V1a receptor; test: Human vasopressin V1a receptor binding assay (3H-AVP competition, hV1a CHO cells); settings: for IC50: read-out: V1a Binding Affinity IC50
Method: Human vasopression V1a receptor binding assay. A cell line expressing the human V1a receptor in CHO cells (henceforth referred to as the hV1a cell line) was obtained from Dr. Michael Brownstein, NIMH, Bethesda, Md., USA. The hV1a cDNA sequence is described by Thibonnier et al., Journal of Biological Chemistry, 269, 3304-3310 (1994), and the expression method was the same as described by Morel et al. (1992). The hV1a cell line was grown in alpha-MEM with 10% fetal bovine serum and 250 ug/ml G418 (Gibco, Grand Island, N.Y., USA). For competitive binding assay, hV1a cells were plated into 6-well culture plate at 1:10 dilution from a confluency flask, and maintained in culture for at least two days. Culture medium was then removed, cells were washed with 2 ml binding buffer (25 mM Hepes, 0.25% BSA, 1×DMEM, PH=7.0). To each well, 990 μl binding buffer containing InM 3H-AVP was added, and followed by 10 μl series diluted Example compounds dissolved in DMSO. […] 100 nM cold AVP (Sigma) was used to assess non-specific binding. Cells were incubated for 45 minutes at 37° C., assay mixture was removed and each well was washed three times with PBS (pH=7.4). 1 ml 2% SDS was added per well and plates were let sit for 30 minutes. The whole content in a well was transferred to a scintillation vial. Each well was rinsed with 0.5 ml PBS which was then added to the corresponding vial. Scintillation fluid (Ecoscint, National Diagnostics, Atlanta, Ga.) was then added at 3 ml per vial. Samples were counted in a liquid scintillation counter (Beckman LS3801). IC50 values were calculated by Prism Curve fitting software.
All of the alkanedioic esters and amides exemplified in the foregoing examples dissolved in DMSO were tested in this assay. Binding curves were generated according to methods described by Thibonnier et al. (1994). [^3H]-AVP was added to the hV1a cell cultures followed by 10-fold dilutions of each test compound.

awake rats = test: Resident-intruder model of stress and aggression in rats, awake fMRI neuroimaging; type: in vivo, rat
Text: Resident-intruder model of stress and aggression in rats. Neuroimaging is used to assess the blockade of stress/arousal with test compound compared to control. The effect of AVN251-HCl on functional circuitry was examined using the imaging method for awake rats. Additional details of the assay are described in Ferris et al. Imaging the neural circuitry and chemical control of aggressive motivation.
Male rats in the company of a female cage mate piloerect in the presence of a male intruder. Piloerection is a sign of stress and aggressive intent and is associated with activation of stress/arousal circuits in the brain. Stress circuit activation in response to an intruder male is assessed by obtaining brain scans viewed from a caudal/dorsal perspective as translucent shells. The localization of activated voxels is mapped as 3D volumes of activation, which are composed of 10 subjects each. Once fully registered and segmented, the statistical responses for each subject are averaged on a voxel-by-voxel basis. Those averaged voxels exceeding a 2.0% threshold are shown in their appropriate spatial location. Functional images are acquired on awake rats at 4.7 T.
Resident male rats from six male/female pairs are imaged while fully awake, and presented with their mate, or their mate+an intruder, a highly stressful stimulus. […] The total volume of brain activation for resident males confronted with their mate alone, mate plus intruder, and mate plus intruder in the presence of AVN251-HCl are viewed as 3D models.
Awake rats are imaged when presented with their mate, or their mate+an intruder. […] In each scan, the dark shaded areas represent activation of vasopressin receptor signaling.

[3] = tested on: Adult male Long Evans rats; test: Light/dark shuttle box; type: in vivo, rat
Method: Anxiolytic Effect in the Light/Dark Shuttle Box. The light/dark shuttle box is a standard and well characterized assay for anxiolytic effects of a test compound. Rats naturally avoid the light side of the box because it is stressful. Increased time on the light side by the treatment group compared to control reflects an anxiolytic effect (Bourin and Hascoet, 2003). Adult male Long Evans rats are administered AVN251 (0.1-2 mg/kg) by oral gavage 90 min prior to testing in a light/dark shuttle box.

[4] = 3H-AVP competition, CHO cells expressing human V1a
[5] = 3H-AVP competition, CHO cells expressing human V1a, read-out: V1a Ki

T1 sequence (P37288 whole entry): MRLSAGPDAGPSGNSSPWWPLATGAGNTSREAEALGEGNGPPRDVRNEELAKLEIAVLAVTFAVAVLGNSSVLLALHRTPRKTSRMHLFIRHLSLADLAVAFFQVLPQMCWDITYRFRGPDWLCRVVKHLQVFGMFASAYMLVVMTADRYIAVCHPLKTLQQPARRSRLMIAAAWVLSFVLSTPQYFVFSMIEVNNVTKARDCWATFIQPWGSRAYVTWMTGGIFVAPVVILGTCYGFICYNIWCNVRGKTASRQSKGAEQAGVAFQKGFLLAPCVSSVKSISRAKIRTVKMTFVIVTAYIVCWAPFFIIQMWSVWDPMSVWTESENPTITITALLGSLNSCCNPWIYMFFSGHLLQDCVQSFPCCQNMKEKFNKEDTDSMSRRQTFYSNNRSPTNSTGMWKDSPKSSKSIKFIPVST

Row | Structure (SMILES) | agonist or antagonist character (human V1a receptor [1]) | IC50 (human V1a receptor [2]; [4]) [nM] | Ki (human V1a receptor [2]; [5]) [nM] | further results
1 | O=C(NCc1cccc(C(F)(F)F)c1)[C@H](CCC(=O)N1CCN(CCc2ccccc2)CC1)N1C(=O)[C@@H](N2C(=O)OC[C@@H]2c2ccccc2)[C@H]1C=Cc1ccccc1 (single isomer, unassigned) [Example 35] | vasopressin V1a antagonists |  |  | 
2 | O=C(NCc1cccc(C(F)(F)F)c1)C(CCC(=O)N1CCN(C2CCCCC2)CC1)N1C(=O)C(N2C(=O)OCC2c2ccccc2)C1C=Cc1ccccc1 (single isomer, unassigned) [Example 110] | vasopressin V1a antagonists |  |  | 
3 | O=C(NCc1cccc(C(F)(F)F)c1)C(CCC(=O)N1CCC(N2CCCCC2)CC1)N1C(=O)C(N2C(=O)OCC2c2ccccc2)C1C=Cc1ccccc1 (single isomer, unassigned) [Example 88] | vasopressin V1a antagonists | 2.4 | 1.45 | 
4 | CNCCC(Oc1ccc(C(F)(F)F)cc1)c1ccccc1 (centres unmarked) [fluoxetine, reference compound] |  |  |  | sexual motivation / mesocorticolimbic dopamine reward system activation (awake rats; presentation of novel receptive female): markedly diminishes activation of this circuit; stress circuit activation (BOLD), mate plus intruder (awake rats; resident male rats, 5 mg/kg oral gavage): decreased activation of both the stress circuits and the mesocorticolimbic dopamine reward system
5 | O=C(NCc1cccc(C(F)(F)F)c1)C(CC(=O)N1CCC(N2CCCCC2)CC1)N1C(=O)C(N2C(=O)OCC2c2ccccc2)C1C=Cc1ccccc1 (centres unmarked) [Example 44] | vasopressin V1a antagonists | 3.1 | 1.89 | 
6 | O=C(NCc1cccc(C(F)(F)F)c1)C(C(=O)NC1CCN(Cc2ccccc2)CC1)N1C(=O)C(N2C(=O)OCC2c2ccccc2)C1C=Cc1ccccc1 (centres unmarked) [Example 39] |  | 23 | 13.3 | 
7 | O=C(NCc1cccc(C(F)(F)F)c1)C(C(=O)N1CCN(C2CCCCC2)CC1)N1C(=O)[C@@H](N2C(=O)OC[C@@H]2c2ccccc2)[C@H]1/C=C/c1ccccc1 (mixture of isomers) [Example 42] |  |  | 26.4 | 
8 | O=C(NCc1cccc(C(F)(F)F)c1)C(CCC(=O)N1CCN(CCC2CCCCC2)CC1)N1C(=O)C(N2C(=O)OCC2c2ccccc2)C1C=Cc1ccccc1 (centres unmarked) [Example 111] |  | 1.31 | 0.82 | 
9 | CC(C)(C)OC(=O)C(C(=O)NCc1cccc(C(F)(F)F)c1)N1C(=O)C(N2C(=O)OCC2c2ccccc2)C1C=Cc1ccccc1 [Example 18, 2(RS)-(tert-Butoxycarbonyl)-2-[3(S)-(4(S)-phenyloxazolidin-2-on-3-yl)-4(R)-(2-styryl)azetidin-2-on-1-yl]acetic acid N-(3-trifluoromethylbenzyl)amide] |  | 35 |  | 

Continued, in another order:

Row | agonist or antagonist character (human V1a receptor [1]) | IC50 (human V1a receptor [2]; [4]) [nM] | Ki (human V1a receptor [2]; [5]) [nM] | Structure (SMILES) | further results
10 | vasopressin V1a antagonists | 2.43 | 1.49 | O=C(NCc1cccc(C(F)(F)F)c1)C(CC(=O)N1CCC(N2CCCCC2)CC1)N1C(=O)C(N2C(=O)OCC2c2ccccc2)C1C=Cc1ccccc1 (centres unmarked) [Example 133] | 
11 |  |  | 0.66 | CN(Cc1cccc(C(F)(F)F)c1)C(=O)[C@@H](CC(=O)N1CCC(N2CCCCC2)CC1)N1C(=O)[C@@H](N2C(=O)OC[C@@H]2c2ccccc2)[C@H]1/C=C/c1ccccc1 [Example 225, 2(R)-[[4-(Piperidinyl)piperidinyl]carbonylmethyl]-2-[3(S)-(4(S)-phenyloxazolidin-2-on-3-yl)-4(R)-(2-styryl)azetidin-2-on-1-yl]acetic acid N-methyl-N-(3-trifluoromethylbenzyl)amide] | Ki (human V1a receptor [2]; receptor selectivity table, read-out: inhibition data Ki, V1a): 0.66 nM; activation of vasopressin receptor signaling in brain scans (FIG. 4 vs FIG. 3) (awake rats; amygdala, cortex, hippocampus, thalamus, mate+intruder): lower activation of vasopressin receptor signaling than the untreated controls; stress/arousal response in amygdala, cortex, hippocampus and thalamus (awake rats; pretreatment 5 mg/kg 90 minutes before test session, mate + intruder, listed as AVN251): blocked the stress/arousal response; anxiety compared to vehicle ([3]; 0.1-2 mg/kg oral gavage 90 min prior to testing): dose dependent decrease in anxiety; light-dark entries (FIG. 6C) ([3]; 1 or 2 mg/kg): more light-dark entries; time in the dark (FIG. 6B) ([3]; 1 or 2 mg/kg, p<0.01): less time in the dark; time in the light (FIG. 6A) ([3]; 1 or 2 mg/kg, p<0.01): more time in the light
12 |  | 6.6 | 4 | CCN1CCN(C(=O)CC[C@@H](C(=O)NC2(c3ccccc3)CCCC2)N2C(=O)[C@@H](N3C(=O)OC[C@@H]3c3ccccc3)[C@H]2/C=C/c2ccccc2)CC1 [Example 239] | 
13 |  | 25 | 15.5 | O=C(NC1(c2ccccc2)CCCC1)[C@H](CCC(=O)N1CCN(Cc2ccccc2)CC1)N1C(=O)[C@@H](N2C(=O)OC[C@@H]2c2ccccc2)[C@H]1/C=C/c1ccccc1 [Example 240] | 
14 |  | 9.1 | 5.58 | O=C(CC(C(=O)NCc1cccc(C(F)(F)F)c1)N1C(=O)C(N2C(=O)OCC2c2ccccc2)C1C=Cc1ccccc1)NC1CCN(Cc2ccccc2)CC1 (centres unmarked) [Example 134C] | 
15 |  | 6 | 3.7 | O=C(NCc1cccc(C(F)(F)F)c1)C(CC(=O)N1CCC(CN2CCCCC2)CC1)N1C(=O)C(N2C(=O)OCC2c2ccccc2)C1C=Cc1ccccc1 (centres unmarked) [Example 134G] | 

— US11319306B2, “Compositions and methods for treating neurodegenerative diseases” (Azevan Pharmaceuticals, Inc., priority 2014, dated 2022)
